# Active and inactive are the calls of the source. The rule behind the calls is not given here.
# Key:
# [1] = Inhibition of Streptococcus pneumoniae LeuRS using [3H]Leucine as substrate preincubated for 20 mins
# Streptococcus pneumoniae = assay: Antibacterial activity against Streptococcus pneumoniae assessed as suppression of visible growth incubated for 24 hrs by CLSI-based broth microdilution method; format: functional
IC50 [1] [µM],MIC (Streptococcus pneumoniae),SMILES
3.77,16 µg/mL,C#CCSc1ccc(C(O)c2ccc3c(c2)B(O)OC3)cc1 (centres undefined)
10.3,,OB1OCc2ccc(C(O)c3ccc(N4CCOCC4)cc3)cc21 (centres undefined)
7.44,,OB1OCc2ccc(C(O)c3ccc(Cl)cc3)cc21 (centres undefined)
8.27,,C=CCSc1ccc(C(O)c2ccc3c(c2)B(O)OC3)cc1 (centres undefined)
3.95,32 µg/mL,CSc1ccc(C(O)c2ccc3c(c2)B(O)OC3)cc1 (centres undefined)
23.2,,COc1ccc(C(O)c2ccc3c(c2)B(O)OC3)cc1 (centres undefined)
67.8,,COc1ccc(C(O)c2ccc3c(c2)B(O)OC3)cc1OC (centres undefined)
10.2,,NC(=O)CSc1ccc(C(O)c2ccc3c(c2)B(O)OC3)cc1 (centres undefined)
56.1,,OB1OCc2ccc(C(O)c3cccc(F)c3)cc21 (centres undefined)
3.63,,OB1OCc2ccc(C(O)c3ccc(SCC(F)(F)F)cc3)cc21 (centres undefined)
0.368,8 µg/mL,OB1OCc2ccc(C(O)c3ccc(S)cc3)cc21 (centres undefined)
7,,CC(=O)COc1ccc(C(O)c2ccc3c(c2)B(O)OC3)cc1 (centres undefined)
18.5,,COC(=O)c1ccc(C(O)c2ccc3c(c2)B(O)OC3)cc1 (centres undefined)
5.48,4 µg/mL,OB1OCc2ccc(C(O)c3ccc(-c4ccccc4)cc3)cc21 (centres undefined)
25.7,,OB1OCc2ccc(C(O)c3ccc(SC(F)(F)F)cc3)cc21 (centres undefined)
12.8,,O=Cc1ccc(C(O)c2ccc3c(c2)B(O)OC3)cc1 (centres undefined)
11,,CC(=O)c1ccc(C(O)c2ccc3c(c2)B(O)OC3)cc1 (centres undefined)
7.63,,CCOC(=O)CC(=O)CSc1ccc(C(O)c2ccc3c(c2)B(O)OC3)cc1 (centres undefined)
2.15,,O=C(O)CSc1ccc(C(O)c2ccc3c(c2)B(O)OC3)cc1 (centres undefined)
70.2,,CC(C)(C)OC(=O)NCCSc1ccc(C(O)c2ccc3c(c2)B(O)OC3)cc1 (centres undefined)
50.8,,COc1cccc(C(O)c2ccc3c(c2)B(O)OC3)c1 (centres undefined)
8.14,,N#Cc1ccc(C(O)c2ccc3c(c2)B(O)OC3)cc1 (centres undefined)

IC50 [1] [µM],MIC (Streptococcus pneumoniae),SMILES
2.13,10 µg/mL,OB1OCc2ccc(C(O)c3ccccc3)cc21 (centres undefined)
4.63,8 µg/mL,C=Cc1ccc(C(O)c2ccc3c(c2)B(O)OC3)cc1 (centres undefined)
> 640,,COc1cc(C(O)c2ccc3c(c2)B(O)OC3)cc(OC)c1OC (centres undefined)
57.1,,CSc1ccccc1C(O)c1ccc2c(c1)B(O)OC2 (centres undefined)
3.89,8 µg/mL,N#CCSc1ccc(C(O)c2ccc3c(c2)B(O)OC3)cc1 (centres undefined)
27.5,,OB1OCc2ccc(C(O)c3ccc(SCc4ccccc4)cc3)cc21 (centres undefined)
7.17,,OB1OCc2ccc(C(O)c3ccc(SCc4ccncc4)cc3)cc21 (centres undefined)
0.95,6 µg/mL,CC(=O)CSc1ccc(C(O)c2ccc3c(c2)B(O)OC3)cc1 (centres undefined)
22.7,,COC(=O)c1ccc(CSc2ccc(C(O)c3ccc4c(c3)B(O)OC4)cc2)cc1 (centres undefined)
8.76,,OB1OCc2ccc(C(O)c3ccc(SCC4CCCCC4)cc3)cc21 (centres undefined)
5.75,32 µg/mL,OB1OCc2ccc(C(O)c3ccc(C(F)(F)F)cc3)cc21 (centres undefined)
23.9,,CSc1cccc(C(O)c2ccc3c(c2)B(O)OC3)c1 (centres undefined)
13.3,,C[Si](C)(C)CSc1ccc(C(O)c2ccc3c(c2)B(O)OC3)cc1 (centres undefined)
23.7,,OB1OCc2ccc(C(O)c3cccc(Cl)c3)cc21 (centres undefined)
7.16,,O=[N+]([O-])c1ccc(CSc2ccc(C(O)c3ccc4c(c3)B(O)OC4)cc2)cc1 (centres undefined)
5.76,,COCCSc1ccc(C(O)c2ccc3c(c2)B(O)OC3)cc1 (centres undefined)
66.8,,O=Cc1cc(C(O)c2ccc3c(c2)B(O)OC3)ccc1F (centres undefined)
4.86,inactive,OB1OCc2ccc(C(O)c3ccc(F)cc3)cc21 (centres undefined)
32.5,,CS(=O)(=O)c1ccc(C(O)c2ccc3c(c2)B(O)OC3)cc1 (centres undefined)
11.7,,Nc1ccc(CSc2ccc(C(O)c3ccc4c(c3)B(O)OC4)cc2)cc1 (centres undefined)
,0.125 µg/mL,CC1(C)S[C@@H]2[C@H](NC(=O)[C@H](N)c3ccccc3)C(=O)N2[C@H]1C(=O)O [AMPICILLIN]
> 100,,C[S+]([O-])c1ccc(C(O)c2ccc3c(c2)B(O)OC3)cc1 (centres undefined)

# From ChEMBL document CHEMBL4673310, “Discovery of benzhydrol-oxaborole derivatives as Streptococcus pneumoniae leucyl-tRNA synthetase inhibitors” (Bioorg Med Chem, 2021)
